These results are taken from US6503307B1, “Ink set, printing method, ink, printed article, printing apparatus, ink cartridge, recording unit, and process of forming polymeric compound films” (Canon Kabushiki Kaisha, priority 1999, dated 2003).

A short description of one data set: Solubility in water. The format is physicochemical. The settings on record: highest concentration forming a uniform transparent aqueous solution. The text has this: In Table 1, the water solubility is shown by the highest concentration of the compound for forming a uniform transparent aqueous solution.
The nature of data set [1]: Reactivity: time for gel formation on mixing 50% solutions. The settings on record: 50% solution of Group B compound with aqueous 50% solution of Compound A-1. In kind it is physicochemical.

On to `CCC(CS)(CS)CS` [Compound B-10], for which the Solubility in the data set “Solubility in water” is listed as above 30%. Also, the “Time for gel formation” value in data set [1] came to 600 s.

`SCC(S)CS` [Compound B-8]: the Solubility in the data set “Solubility in water” is above 30%. The “Time for gel formation” value in data set [1] stood at 600 s.

In the case of `NC1C(O)OC(CO)C(O)C1O` (stereo not drawn) [Compound B-4], in “Solubility in water”, the Solubility is listed as 20%. Moreover, in data set [1], the “Time for gel formation” value was 600 s.
